Here are results for seven molecules from patent US8415312B2, “Compound which is a nystatin derivative” (Biosergen AS, priority 2007, dated 2013).

The subject of series [1] is yeasts and filamentous fungi (moulds). In words: Antifungal susceptibility study (1), overall comparison across the test organisms. Particulars: Table 5 MICs. It is filed as cell-based. The procedure:
The organisms used for susceptibility testing were: Candida albicans ATCC 14053, Cryptococcus humicolus ATCC 9949, Aspergillus niger ATCC 16404 and Fusarium oxysporum VKM F-140 (=CMI, IMI 90473). Organisms were stored on potato dextrose agar […] 50% glycerol solution at -70° C. For short-term storage, stock cultures were stored on agar […] 4° C. The cultures of yeasts were sub-cultured onto Sabouraud dextrose (SAB) agar and incubated for 24 hours at 35° C. (Candida albicans) or for 48 hours at 25° C. (Cryptococcus humicolus) to obtain a freshly grown pure culture. The cultures of moulds were sub-cultured onto potato dextrose agar and incubated for 7 days at 35° C. […] (Fusarium oxysporum) to ensure maximum sporulation. Sterile 96-well flat-bottomed microtitration plates were used for testing. 100 μl of diluted inocula were dispensed into each microdilution well containing 100 μl of the double dilutions of compounds. Drug-free and yeast/mould-free controls were included. Microdilution trays were incubated at 35° C. (Candida albicans and moulds) or 25° C. (Cryptococcus humicolus) without agitation and observed for the presence or absence of visible growth. […] Minimal inhibitory concentrations (MICs) were read at 48 hours.

The subject of series [2] is Fusarium oxysporum VKM F-140. In words: Antifungal susceptibility study (1), broth microdilution MIC. The format is cell-based. Particulars: lowest concentration preventing any visible growth, read at 48 hours, 35° C., RPMI 1640 pH 7.0. Summed up: (§1)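 Broth microdilution was run at pH 7.0 with compounds diluted from DMSO solutions and mixed 1:1 with conidial inoculum. Spore suspensions were adjusted to OD530 0.09-0.11 for A. niger or 0.15-0.17 for F. oxysporum, then diluted 1:50. Plates were incubated at 35° C without agitation, and MIC was read at 48 hours as absence of visible growth.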
(In general: Broth dilution looks for growth in wells or tubes with falling amounts of substance.)

The subject of series [3] is Aspergillus niger ATCC 16404. The description is as above. The format is cell-based. Particulars: lowest concentration preventing any visible growth, read at 48 hours, 35° C., RPMI 1640 pH 7.0. Summed up:
as §1

For series [4], the system named is Candida albicans ATCC 14053. The series is described as above. The format is cell-based. To be noted: lowest concentration preventing any visible growth, read at 48 hours, 35° C., RPMI 1640 pH 7.0. Summed up: (§2)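 Broth microdilution in test medium at pH 7.0 with two-fold compound dilutions (DMSO stocks diluted 50-fold into medium), inoculated with freshly grown yeast cultures. Plates were incubated without agitation at 35° C. for C. albicans or 25° C. for C. humicolus. MIC was taken as the concentration with no visible growth, read at 48 hours.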

Series [5] concerns Cryptococcus humicolus ATCC 9949. The series is described as above. Particulars: lowest concentration preventing any visible growth, read at 48 hours, 25° C., RPMI 1640 pH 7.0. It is filed as cell-based. The procedure, abridged:
as §2

Another series relates to human blood erythrocytes. Put plainly: In vitro toxicity study, haemolysis (Table 10). It is filed as cell-based. To be noted: for Haemolysis of human blood erythrocytes: individual blood samples # 1-3.
For a further series, the system named is erythrocytes. Put plainly: In vitro toxicity study, haemolysis (Tables 11 and 12). It is filed as cell-based, horse. To be noted: for Haemolysis of erythrocytes, Mean ± S.E.M.: 25 μM (Table 12); for Haemolysis of erythrocytes, Mean ± SE: 5 μg/mL (Table 11). The procedure: The toxicity of various nystatin derivatives was tested at 2 and 5 μg/mL and at 25 μM.
Compounds were dissolved in DMSO at 5 mg/mL and 0.1 mL samples with different concentrations were prepared in DMSO. The samples were mixed with 0.9 mL PBS buffer containing 2.5% horse blood (PBS-HB; kept on ice) and incubated at 37° C. for 30 min without agitation.
Cells were pelleted by centrifugation at 5000 rpm for 5 min and haemolysis was evaluated by measuring OD545. 100% haemolysis was defined as the OD545 value obtained from a suspension of 2.5% horse blood in distilled water.

Series [6] concerns Candida albicans ATCC 10231. Put plainly: Antifungal susceptibility study (2), MIC50 by OD490 growth. It is filed as cell-based. Particulars: 50% growth inhibition from regression curve, M19 medium without NaCl, 30° C. The procedure:
The anti-fungal activity of several of the nystatin derivatives was further investigated. […] The anti-fungal activity of a number of the nystatin derivatives was therefore determined in a method which is designed to be more sensitive.
The test organism used for the further testing of polyene macrolide bioactivity was Candida albicans ATCC 10231, grown in 120 μl of standard M19 medium without NaCl (with an inoculum of 1000 cfu per well) and 30 μl of diluted polyene macrolide samples. The antibiotics were diluted in MeOH in series ensuring a spectrum of concentrations which yielded results ranging from complete growth inhibition to no inhibition of the test organism. The test organism cultures with antibiotic dilutions were incubated in 96-well microtiter plates at 30° C. without shaking, and growth was measured as OD490 after 12, 14 and 16 hours on a SpectraMax Plus microtiter plate reader. OD was plotted against antibiotic concentration, and MIC50 was estimated from the regression curve at 50% growth inhibition.

Setting [7] is: 25 μM, individual blood samples (Table 12).
The mark [8] stands for this setting: 5 μg/mL, individual blood samples # 1-3 (Table 11).

SMILES strings stand for the structures. Converted amounts (≈) assume the structure as drawn. “And” between values parts separate entries of the source, which are not always exact repeats. Equal entries are not always repeated.

As a reminder, the MIC50 is the lowest concentration that inhibits either 50% of growth or 50% of the strains tested, depending on the study.

Turning to `COC(=O)C(CO)NC(=O)C1C(O)CC2(O)CC(O)C(O)CCC(O)CC(O)CC(O)CC(=O)OC(C)C(C)C(O)C(C)C=CC=CC=CC=CC=CC=CC=CC(OC3OC(C)C(O)C(N)C3O)CC1O2` (mixture of isomers) [Compound 14], the “anti-fungal activity compared with Amphotericin B and S44HP” value in series [1] is “comparable anti-fungal activity to Amphotericin B and S44HP”. Also, the “MIC Fusarium oxysporum VKM F-140” value in series [2] was 4 µg/mL. Also, the “MIC Aspergillus niger ATCC 16404” value in series [3] stood at 2 µg/mL. Besides, the “MIC Candida albicans ATCC 14053” value in series [4] came out at 1 µg/mL. Further, the “MIC Cryptococcus humicolus ATCC 9949” value in series [5] was determined as 1 µg/mL. Moreover, in the series on human blood erythrocytes (2 μg/mL), the “Haemolysis of human blood erythrocytes, MEAN ± SE” value was 2.5 ± 0.07%; the “Haemolysis of human blood erythrocytes” value is 2.7% and 2.5% (2×). Further, in the series with human blood erythrocytes (5 μg/mL), the “Haemolysis of human blood erythrocytes, MEAN ± SE” value is listed as 4.9 ± 0.2%; the “Haemolysis of human blood erythrocytes” value is 4.8% and 4.5% and 5.3%.

For the molecule `CC1C=CC=CC=CC=CC=CC=CC=CC(OC2OC(C)C(O)C(N)C2O)CC2OC(O)(CC(O)C(O)CCC(O)CC(O)CC(O)CC(=O)OC(C)C(C)C1O)CC(O)C2C(=O)NCCO` (centres unmarked) [Compound 5], the “MIC Fusarium oxysporum VKM F-140” value in series [2] was determined as 4 µg/mL (≈ 4.14 µM). Besides, the “MIC Aspergillus niger ATCC 16404” value in series [3] came out at 4 µg/mL (≈ 4.14 µM). In addition, the “MIC Candida albicans ATCC 14053” value in series [4] was 2 µg/mL (≈ 2.07 µM). For the same molecule, the “MIC Cryptococcus humicolus ATCC 9949” value in series [5] was determined as 4 µg/mL (≈ 4.14 µM). For the same molecule, the “Haemolysis of erythrocytes, Mean ± S.E.M.” value (“Haemolysis … Mean ± S.E.M.” below) in the series with erythrocytes is recorded as 1.6 ± 0.2%. For the same molecule, in the series on erythrocytes (setting [7]), the Haemolysis of erythrocytes is 1% and 1.9% and 1.3% and 2% and 1.8% and 2.1%.

Turning to `CNC(=O)C1C(O)CC2(O)CC(O)C(O)CCC(O)CC(O)CC(O)CC(=O)OC(C)C(C)C(O)C(C)C=CC=CC=CC=CC=CC=CC=CC(OC3OC(C)C(O)C(N)C3O)CC1O2` (centres unmarked) [Compound 6], the “MIC Fusarium oxysporum VKM F-140” value in series [2] worked out at 4 µg/mL (≈ 4.27 µM). Further, the “MIC Aspergillus niger ATCC 16404” value in series [3] came out at 4 µg/mL (≈ 4.27 µM). The “MIC Candida albicans ATCC 14053” value in series [4] was determined as 2 µg/mL (≈ 2.13 µM). For the same molecule, in series [5], the “MIC Cryptococcus humicolus ATCC 9949” value worked out at 2 µg/mL (≈ 2.13 µM). Further, the “Haemolysis … Mean ± S.E.M.” value in the series with erythrocytes came out at 3.7 ± 0.6%. For the same molecule, the Haemolysis of erythrocytes with erythrocytes (setting [7]) was 3.7% and 4.3% and 3.2% and 2% and 2.4% and 3.3% and 7%.

With `CC1C=CC=CC=CC=CC=CC=CC=CC(OC2OC(C)C(O)C(N)C2O)CC2OC(O)(CC(O)C(O)CCC(O)CC(O)CC(O)CC(=O)OC(C)C(C)C1O)CC(O)C2C(N)=O` (centres unmarked) [Compound 7], the “MIC Fusarium oxysporum VKM F-140” value in series [2] turned out to be 8 µg/mL (≈ 8.67 µM). Also, in series [3], the “MIC Aspergillus niger ATCC 16404” value was 2 µg/mL (≈ 2.17 µM). In addition, the “MIC Candida albicans ATCC 14053” value in series [4] was 2 µg/mL (≈ 2.17 µM). The “MIC Cryptococcus humicolus ATCC 9949” value in series [5] came out at 1 µg/mL (≈ 1.08 µM). Also, in the series with erythrocytes, the “Haemolysis of erythrocytes, Mean ± SE” value came out at 5.2 ± 0.2% and the “Haemolysis … Mean ± S.E.M.” value came to 1.5 ± 0.17%. Further, in the series on erythrocytes (setting [8]), the Haemolysis of erythrocytes was 5.8% and 5.0% (2×). Further, the Haemolysis of erythrocytes in the series with erythrocytes (setting [7]) was 1.7% and 1.3% and 1.9% (3×) and 1.0% and 0.9%.

For `COC(=O)C(CO)NC(=O)C1C(O)CC2(O)CC(O)C(O)CCC(O)CC(O)CC(O)CC(=O)OC(C)C(C)C(O)C(C)C=CC=CC=CC=CC=CC=CC=CC(OC3OC(C)C(O)C(N)C3O)CC1O2` (centres unmarked) [Compound 13], the “anti-fungal activity compared with Amphotericin B and S44HP” value in series [1] was “comparable anti-fungal activity to Amphotericin B and S44HP”. Besides, the “MIC Fusarium oxysporum VKM F-140” value in series [2] came to 4 µg/mL (≈ 3.9 µM). For the same molecule, the “MIC Aspergillus niger ATCC 16404” value in series [3] stood at 1 µg/mL (≈ 0.975 µM). The “MIC Candida albicans ATCC 14053” value in series [4] amounted to 1 µg/mL (≈ 0.975 µM). Further, the “MIC Cryptococcus humicolus ATCC 9949” value in series [5] was 1 µg/mL (≈ 0.975 µM). In addition, in the series on human blood erythrocytes (2 μg/mL), the “Haemolysis of human blood erythrocytes, MEAN ± SE” value was 3.7 ± 0.6%; the “Haemolysis of human blood erythrocytes” value is 3.3% and 3.0% and 4.9%. Further, in the series with human blood erythrocytes (5 μg/mL), the “Haemolysis of human blood erythrocytes, MEAN ± SE” value is listed as 14.5 ± 0.5%; the “Haemolysis of human blood erythrocytes” value is 15.5% and 14% and 14.2%.

`CC1C=CC=CC=CC=CC=CC=CC=CC(OC2OC(C)C(O)C(N)C2O)CC2OC(O)(CC(O)C(O)CCC(O)CC(O)CC(O)CC(=O)OC(C)C(C)C1O)CC(O)C2C(=O)N1CCN(CCO)CC1` (centres unmarked) [Compound 15]: the “MIC Fusarium oxysporum VKM F-140” value in series [2] amounted to 4 µg/mL (≈ 3.86 µM). In addition, in series [3], the “MIC Aspergillus niger ATCC 16404” value was found to be 2 µg/mL (≈ 1.93 µM). In addition, the MIC50 in series [6] worked out at 0.20 µg/mL (≈ 0.193 µM). Moreover, the “MIC Candida albicans ATCC 14053” value in series [4] was found to be 1 µg/mL (≈ 0.965 µM). Further, the “MIC Cryptococcus humicolus ATCC 9949” value in series [5] was found to be 2 µg/mL (≈ 1.93 µM). For the same molecule, the “Haemolysis of erythrocytes, Mean ± SE” value with erythrocytes was 2.6 ± 0.1%. For the same molecule, the Haemolysis of erythrocytes in the series on erythrocytes (setting [8]) is 2.8% and 2.4% and 2.7%.

Regarding `CC1C=CC=CC=CC=CC=CC=CC=CC(OC2OC(C)C(O)C(N)C2O)CC2OC(O)(CC(O)C(O)CCC(O)CC(O)CC(O)CC(=O)OC(C)C(C)C1O)CC(O)C2C(=O)NC1C(O)OC(CO)C(O)C1O` (centres unmarked) [Compound 16], in series [2], the “MIC Fusarium oxysporum VKM F-140” value came to 8 µg/mL (≈ 7.37 µM). For the same molecule, the “MIC Aspergillus niger ATCC 16404” value in series [3] was 2 µg/mL (≈ 1.84 µM). For the same molecule, in series [4], the “MIC Candida albicans ATCC 14053” value came out at 1 µg/mL (≈ 0.921 µM). Moreover, the “MIC Cryptococcus humicolus ATCC 9949” value in series [5] came to 1 µg/mL (≈ 0.921 µM). The “Haemolysis of human blood erythrocytes, MEAN ± SE” value in the series with human blood erythrocytes (2 μg/mL) stood at 2.4 ± 0.12%; in the series on human blood erythrocytes (5 μg/mL), 3.1 ± 0.14%. The “Haemolysis of human blood erythrocytes” value in the series on human blood erythrocytes (2 μg/mL) was 2.3% and 2.2% and 2.6%; with human blood erythrocytes (5 μg/mL), 3.1% and 2.9% and 3.4%.
